For orientation: IC50 means the midpoint of a concentration-inhibition curve. The low end stands for higher potency, the high end for lower potency.

Active and inactive are the calls of the source. No cut-off for these calls is given here.

For one experiment, the system named is Saccharomyces cerevisiae. Put plainly: Inhibition of Saccharomyces cerevisiae alpha-glucosidase at 0.1 mg/ml.
In the case of `O=C(Cn1cc(COC[C@H]2O[C@H](OCc3cn(CC(=O)OC(c4ccccc4)c4ccccc4)nn3)[C@H](OCc3ccccc3)[C@@H](OCc3ccccc3)[C@@H]2OCc2ccccc2)nn1)OC(c1ccccc1)c1ccccc1`, the inhibition entry was “inactive”.

Consider `COc1cccc(Cn2cc(COC[C@H]3O[C@H](OCc4cn(Cc5cccc(OC)c5)nn4)[C@H](OCc4ccccc4)[C@@H](OCc4ccccc4)[C@@H]3OCc3ccccc3)nn2)c1`, for which the inhibition result was “inactive”.

With `O=C(Cn1cc(COC[C@H]2O[C@H](OCc3cn(CC(=O)c4cc5ccccc5oc4=O)nn3)[C@H](OCc3ccccc3)[C@@H](OCc3ccccc3)[C@@H]2OCc2ccccc2)nn1)c1cc2ccccc2oc1=O`, the inhibition entry was “inactive”.

With `COc1ccc(COC(=O)Cn2cc(COC[C@H]3O[C@H](OCc4cn(CC(=O)OCc5ccc(OC)cc5)nn4)[C@H](OCc4ccccc4)[C@@H](OCc4ccccc4)[C@@H]3OCc3ccccc3)nn2)cc1`, the inhibition result was “inactive”.

Regarding `c1ccc(CO[C@@H]2[C@@H](OCc3ccccc3)[C@@H](OCc3cn(C(c4ccccc4)c4ccccc4)nn3)O[C@H](COCc3cn(C(c4ccccc4)c4ccccc4)nn3)[C@H]2OCc2ccccc2)cc1`, the inhibition result is “inactive”.

Consider `Cc1cc(COC(=O)Cn2cc(COC[C@H]3O[C@H](OCc4cn(CC(=O)OCc5ccc(Cl)c(C)c5)nn4)[C@H](OCc4ccccc4)[C@@H](OCc4ccccc4)[C@@H]3OCc3ccccc3)nn2)ccc1Cl`, for which the inhibition result was “inactive”.

In the case of `CCCCCCCCCCCCCn1cc(COC[C@H]2O[C@H](OCc3cn(CCCCCCCCCCCCC)nn3)[C@H](OCc3ccccc3)[C@@H](OCc3ccccc3)[C@@H]2OCc2ccccc2)nn1`, the inhibition result is “inactive”.

For `c1ccc(CCn2cc(COC[C@H]3O[C@H](OCc4cn(CCc5ccccc5)nn4)[C@H](OCc4ccccc4)[C@@H](OCc4ccccc4)[C@@H]3OCc3ccccc3)nn2)cc1`, the inhibition entry is “inactive”.

In the case of `C=CCCCCCCCCCn1cc(COC[C@H]2O[C@H](OCc3cn(CCCCCCCCCC=C)nn3)[C@H](OCc3ccccc3)[C@@H](OCc3ccccc3)[C@@H]2OCc2ccccc2)nn1`, the inhibition entry is “inactive”.

For `COc1cc(COC(=O)Cn2cc(COC[C@H]3O[C@H](OCc4cn(CC(=O)OCc5ccc(OCc6ccccc6)c(OC)c5)nn4)[C@H](OCc4ccccc4)[C@@H](OCc4ccccc4)[C@@H]3OCc3ccccc3)nn2)ccc1OCc1ccccc1`, the inhibition result is “inactive”.

As to `CCCCCCCCCCCCCCCCCCn1cc(COC[C@H]2O[C@H](OCc3cn(CCCCCCCCCCCCCCCCCC)nn3)[C@H](OCc3ccccc3)[C@@H](OCc3ccccc3)[C@@H]2OCc2ccccc2)nn1`, the inhibition entry is “inactive”.

`COc1cc(Cn2cc(COC[C@H]3O[C@H](OCc4cn(Cc5ccc(OCc6ccccc6)c(OC)c5)nn4)[C@H](OCc4ccccc4)[C@@H](OCc4ccccc4)[C@@H]3OCc3ccccc3)nn2)ccc1OCc1ccccc1`: the inhibition entry was “inactive”.

For `COc1ccc(OC)c(COC(=O)Cn2cc(COC[C@H]3O[C@H](OCc4cn(CC(=O)OCc5cc(OC)ccc5OC)nn4)[C@H](OCc4ccccc4)[C@@H](OCc4ccccc4)[C@@H]3OCc3ccccc3)nn2)c1`, the inhibition entry is “inactive”.

On to `O=C(Cn1cc(COC[C@H]2O[C@H](OCc3cn(CC(=O)OCc4ccccc4)nn3)[C@H](OCc3ccccc3)[C@@H](OCc3ccccc3)[C@@H]2OCc2ccccc2)nn1)OCc1ccccc1`, for which the inhibition entry was “inactive”.

As for `COc1cccc(COC(=O)Cn2cc(COC[C@H]3O[C@H](OCc4cn(CC(=O)OCc5cccc(OC)c5)nn4)[C@H](OCc4ccccc4)[C@@H](OCc4ccccc4)[C@@H]3OCc3ccccc3)nn2)c1`, the inhibition result is “inactive”.

On to `C=CCc1ccccc1OCCn1cc(COC[C@H]2O[C@H](OCc3cn(CCOc4ccccc4CC=C)nn3)[C@H](OCc3ccccc3)[C@@H](OCc3ccccc3)[C@@H]2OCc2ccccc2)nn1`, for which the inhibition result is “inactive”.

The species entered for another experiment is Homo sapiens. The experiment is described as follows: Competitive inhibition of alpha-glucosidase (unknown origin) by kinetics based analysis.
As for `CC(C)[C@@H]1CC[C@@H](C)C[C@H]1OC(=O)Cn1cc(COC[C@H]2O[C@H](OCc3cn(CC(=O)O[C@@H]4C[C@H](C)CC[C@H]4C(C)C)nn3)[C@H](OCc3ccccc3)[C@@H](OCc3ccccc3)[C@@H]2OCc2ccccc2)nn1`, the inhibition entry was “Active”.

Another experiment deals with Saccharomyces cerevisiae. The experiment is described as follows: Potency index, ratio of acarbose IC50 to test compound IC50 for Saccharomyces cerevisiae alpha-glucosidase.
With `CC(C)[C@@H]1CC[C@@H](C)C[C@H]1OC(=O)Cn1cc(COC[C@H]2O[C@H](OCc3cn(CC(=O)O[C@@H]4C[C@H](C)CC[C@H]4C(C)C)nn3)[C@H](OCc3ccccc3)[C@@H](OCc3ccccc3)[C@@H]2OCc2ccccc2)nn1`, the Ratio IC50 is 39.

Molecular target in a further experiment: not listed separately
Put plainly: Inhibition of Saccharomyces cerevisiae alpha-glucosidase.
In turn, `O=[N+]([O-])c1ccc(Cn2cc(COC[C@H]3O[C@H](OCc4cn(Cc5ccc([N+](=O)[O-])cc5)nn4)[C@H](OCc4ccccc4)[C@@H](OCc4ccccc4)[C@@H]3OCc3ccccc3)nn2)cc1` displayed an IC50 of 53.3 µM.

`CCCCCCCC/C=C\CCCCCCCCn1cc(COC[C@H]2O[C@H](OCc3cn(CCCCCCCC/C=C\CCCCCCCC)nn3)[C@H](OCc3ccccc3)[C@@H](OCc3ccccc3)[C@@H]2OCc2ccccc2)nn1` returned an IC50 of 14.1 µM.

For the molecule `c1ccc(CO[C@@H]2[C@@H](OCc3ccccc3)[C@@H](OCc3cn(CCOc4ccc5ccccc5c4)nn3)O[C@H](COCc3cn(CCOc4ccc5ccccc5c4)nn3)[C@H]2OCc2ccccc2)cc1`, the IC50 came out at 13.9 µM.

Molecule `Fc1ccc(Cn2cc(COC[C@H]3O[C@H](OCc4cn(Cc5ccc(F)cc5)nn4)[C@H](OCc4ccccc4)[C@@H](OCc4ccccc4)[C@@H]3OCc3ccccc3)nn2)cc1` yielded an IC50 of 37.3 µM.

The molecule `c1ccc(CO[C@@H]2[C@@H](OCc3ccccc3)[C@@H](OCc3cn(CCOc4ccccc4)nn3)O[C@H](COCc3cn(CCOc4ccccc4)nn3)[C@H]2OCc2ccccc2)cc1` registered an IC50 of 24.4 µM.

Consider `O=[N+]([O-])c1cccc(Cn2cc(COC[C@H]3O[C@H](OCc4cn(Cc5cccc([N+](=O)[O-])c5)nn4)[C@H](OCc4ccccc4)[C@@H](OCc4ccccc4)[C@@H]3OCc3ccccc3)nn2)c1`, for which inhibition was half-maximal at 22.9 µM (IC50).

In turn, `O=C1C=C(OCCCCCCn2cc(COC[C@H]3O[C@H](OCc4cn(CCCCCCOC5=CC(=O)Cc6ccccc65)nn4)[C@H](OCc4ccccc4)[C@@H](OCc4ccccc4)[C@@H]3OCc3ccccc3)nn2)c2ccccc2C1` yielded an IC50 of 20.8 µM.

In turn, `O=C(Cn1cc(COC[C@H]2O[C@H](OCc3cn(CC(=O)Oc4cccc5ccccc45)nn3)[C@H](OCc3ccccc3)[C@@H](OCc3ccccc3)[C@@H]2OCc2ccccc2)nn1)Oc1cccc2ccccc12` displayed a 50% inhibitory concentration (IC50) of 9.98 µM.

Molecule `Cc1ccc(OCCn2cc(COC[C@H]3O[C@H](OCc4cn(CCOc5ccc(C)cc5)nn4)[C@H](OCc4ccccc4)[C@@H](OCc4ccccc4)[C@@H]3OCc3ccccc3)nn2)cc1` came in with a half-maximal inhibitory concentration (IC50) of 50.5 µM.

The molecule `c1ccc(CO[C@@H]2[C@@H](OCc3ccccc3)[C@@H](OCc3cn(Cc4ccccc4)nn3)O[C@H](COCc3cn(Cc4ccccc4)nn3)[C@H]2OCc2ccccc2)cc1` yielded an IC50 of 12.1 µM.

With `O=C(Cn1cc(COC[C@H]2O[C@H](OCc3cn(CC(=O)OCc4ccc([N+](=O)[O-])cc4)nn3)[C@H](OCc3ccccc3)[C@@H](OCc3ccccc3)[C@@H]2OCc2ccccc2)nn1)OCc1ccc([N+](=O)[O-])cc1`, the midpoint of inhibition, the IC50, lay at 5.68 µM.

As for `COc1ccc(OC)c(Cn2cc(COC[C@H]3O[C@H](OCc4cn(Cc5cc(OC)ccc5OC)nn4)[C@H](OCc4ccccc4)[C@@H](OCc4ccccc4)[C@@H]3OCc3ccccc3)nn2)c1`, the IC50 was determined as 3.86 µM.

For the molecule `C[C@H]1O[C@H](O[C@H]2[C@H](O)[C@@H](O)[C@@H](O[C@H]3[C@H](O)[C@@H](O)C(O)O[C@@H]3CO)O[C@@H]2CO)[C@H](O)[C@@H](O)[C@@H]1N[C@H]1C=C(CO)[C@@H](O)[C@H](O)[C@H]1O` (some centres undefined) [ACARBOSE], the midpoint of inhibition, the IC50, lay at 146 µM.

As to `CC(C)[C@@H]1CC[C@@H](C)C[C@H]1OC(=O)Cn1cc(COC[C@H]2O[C@H](OCc3cn(CC(=O)O[C@@H]4C[C@H](C)CC[C@H]4C(C)C)nn3)[C@H](OCc3ccccc3)[C@@H](OCc3ccccc3)[C@@H]2OCc2ccccc2)nn1`, inhibition was half-maximal at 3.73 µM (IC50).

Turning to `O=c1ccc2cc(OCCCCCCn3cc(COC[C@H]4O[C@H](OCc5cn(CCCCCCOc6ccc7oc(=O)ccc7c6)nn5)[C@H](OCc5ccccc5)[C@@H](OCc5ccccc5)[C@@H]4OCc4ccccc4)nn3)ccc2o1`, half-maximal inhibition (IC50) was put at 21.7 µM.

The molecule `c1ccc(CO[C@@H]2[C@@H](OCc3ccccc3)[C@@H](OCc3cn(CCOc4cccc5ccccc45)nn3)O[C@H](COCc3cn(CCOc4cccc5ccccc45)nn3)[C@H]2OCc2ccccc2)cc1` yielded an IC50 of 29.4 µM.

Source of the values: ChEMBL document CHEMBL4808241, “Synthesis and biological evaluation of 1,6-bis-triazole-2,3,4-tri-O-benzyl-α-d-glucopyranosides as a novel α-glucosidase inhibitor in the treatment of Type 2 diabetes” (Bioorg Med Chem Lett, 2021).
